Assay results published in article PMC6629785, “Synthesis and Pharmacological Evaluation of a Novel Peptide Based on Anemonia sulcata BDS-I Toxin as a New KV3.4 Inhibitor Exerting a Neuroprotective Effect Against Amyloid-β Peptide” (Frontiers in Chemistry, 2019).
Ends that are not written are not given here.

Test system: caspase-3 activation
Assay: Western blot of cleaved (activated) caspase-3 after Aβ1−42 exposure
Format: cell-based, Rat
Conditions: peptide 100 nM, 30 min pre-treatment; Aβ1−42 oligomers 5 μM, 24 h; western blot densitometry, 3 sessions
Experimental: Rat pheochromocytoma cells (PC-12 cells) were grown as previously described (Pannaccione et al., [2005], [2007]). For all the experiments, cells were seeded at low density on glass cover-slips coated with poly-L-lysine (50 μg/ml). Differentiation of PC-12 cells was achieved by treatment with neuronal growth factor (NGF) 2.5 S (50 ng/ml) for 7–9 days (Greene and Tischler, [1976]). For electrophysiological experiments, cells were seeded on glass cover-slips and used after 7–9 days of NGF. […]
NGF-differentiated PC-12 and CHO cells were washed in phosphate buffered saline (PBS) and collected by gentle scraping in ice-cold RIPA buffer containing in mM: 50 Tris pH 7.4, 100 NaCl, 1 EGTA, 1 PMSF, 1 sodium orthovanadate, 1 NaF, 0.5% NP-40, and 0.2% SDS supplemented with protease inhibitor cocktail II. […] The protein content of resulting supernatant was determined using the Bradford reagent. […]
The peptide used in our study was synthesized by INBIOS (Pozzuoli, Naples, Italy) using the Aβ1−42 sequence of human APP [UniProtKB-P05067 (A4_HUMAN)]. The purity of the peptide was assessed by high-performance liquid chromatography (>95% pure) and the amino acid composition was verified by mass spectrometry. […] The pre-aggregated preparation of Aβ oligomers was analyzed in SDS-PAGE using the rabbit monoclonal anti-Aβ on precast gels 4-20%. […]

Substance	effect on Aβ1−42-induced caspase-3 activation
H-GSAFAPAA-OH [BDS-I[1-8scr]]	did not
AAPAFASG [BDS-I[1-8]]	prevented
